According to paper PMC7501296, “Rapid and direct control of target protein levels with VHL-recruiting dTAG molecules” (Nature Communications, 2020):

System: EWS502 FKBP12^F36V-EWS/FLI; EWS/FLI^−/− cells
Test: Synergy assessment: antiproliferation of EWS502 FKBP12F36V-EWS/FLI; EWS/FLI-/- cells co-treated with dTAGV-1 and dBET6, 72 h
Type: cell-based
Procedure: Cell viability was assayed in 2D-adherent or ultra-low adherent 3D-spheroids using CellTiter-Glo (Promega)[6],[15]. Luminescence was measured on an Envision 2104 plate reader (PerkinElmer) and Fluostar Omega Reader (BMG Labtech) and data was analyzed using GraphPad PRISM v8. Synergy assessments were performed using CellTiter-Glo (Promega) with the following modifications to the protocol described in the ref. [34]. In brief, EWS502 cells were plated at 1000 cells per well in 50 µL of appropriate media in 384-well white culture plates (Corning) allowed to adhere overnight, and 100 nL of compounds were added using a Janus Workstation pin tool (PerkinElmer) for 72 h. Cell viability was measured by addition of 10 µL of CellTiter-glo (Promega), followed by incubation for 15 minutes at room temperature. Luminescence was measured on an Envision 2104 plate reader (PerkinElmer) and data was analyzed using GraphPad PRISM v8.

Cc1sc2c(c1C)C(c1ccc(Cl)cc1)=N[C@@H](CC(=O)NCCCCCCCCNC(=O)COc1cccc3c1C(=O)N(C1CCC(=O)NC1=O)C3=O)c1nnc(C)n1-2 (stereo partly shown) [dBET6]
Average DMSO-normalized ratio used for CI calculation (1 nM dBET6 + 19.5 nM dTAGV-1): 0.9811 | Average DMSO-normalized ratio used for CI calculation (1 nM dBET6 + 78 nM dTAGV-1): 1.134 | Average DMSO-normalized ratio used for CI calculation (1 nM dBET6 + 312.5 nM dTAGV-1): 1.111 | Average DMSO-normalized ratio used for CI calculation (1 nM dBET6 + 1250 nM dTAGV-1): 0.8948 | Average DMSO-normalized ratio used for CI calculation (1 nM dBET6 + 5000 nM dTAGV-1): 0.8015 | Average DMSO-normalized ratio used for CI calculation (1 nM dBET6 alone): 0.8411 | Average DMSO-normalized ratio used for CI calculation (4 nM dBET6 + 19.5 nM dTAGV-1): 0.9809 | Average DMSO-normalized ratio used for CI calculation (4 nM dBET6 + 78 nM dTAGV-1): 1.057 | Average DMSO-normalized ratio used for CI calculation (4 nM dBET6 + 312.5 nM dTAGV-1): 1.0595 | Average DMSO-normalized ratio used for CI calculation (4 nM dBET6 + 1250 nM dTAGV-1): 0.7491 | Average DMSO-normalized ratio used for CI calculation (4 nM dBET6 + 5000 nM dTAGV-1): 0.4793 | Average DMSO-normalized ratio used for CI calculation (4 nM dBET6 alone): 0.8957 | Average DMSO-normalized ratio used for CI calculation (15.6 nM dBET6 + 19.5 nM dTAGV-1): 0.798 | Average DMSO-normalized ratio used for CI calculation (15.6 nM dBET6 + 78 nM dTAGV-1): 0.8317 | Average DMSO-normalized ratio used for CI calculation (15.6 nM dBET6 + 312.5 nM dTAGV-1): 0.7228 | Average DMSO-normalized ratio used for CI calculation (15.6 nM dBET6 + 1250 nM dTAGV-1): 0.4425 | Average DMSO-normalized ratio used for CI calculation (15.6 nM dBET6 + 5000 nM dTAGV-1): 0.279 | Average DMSO-normalized ratio used for CI calculation (15.6 nM dBET6 alone): 0.7797 | Average DMSO-normalized ratio used for CI calculation (62.5 nM dBET6 + 19.5 nM dTAGV-1): 0.5057 | Average DMSO-normalized ratio used for CI calculation (62.5 nM dBET6 + 78 nM dTAGV-1): 0.5414 | Average DMSO-normalized ratio used for CI calculation (62.5 nM dBET6 + 312.5 nM dTAGV-1): 0.4908 | Average DMSO-normalized ratio used for CI calculation (62.5 nM dBET6 + 1250 nM dTAGV-1): 0.3106 | Average DMSO-normalized ratio used for CI calculation (62.5 nM dBET6 + 5000 nM dTAGV-1): 0.2615 | Average DMSO-normalized ratio used for CI calculation (62.5 nM dBET6 alone): 0.5245 | Average DMSO-normalized ratio used for CI calculation (250 nM dBET6 + 19.5 nM dTAGV-1): 0.3576 | Average DMSO-normalized ratio used for CI calculation (250 nM dBET6 + 78 nM dTAGV-1): 0.3678 | Average DMSO-normalized ratio used for CI calculation (250 nM dBET6 + 312.5 nM dTAGV-1): 0.3326 | Average DMSO-normalized ratio used for CI calculation (250 nM dBET6 + 1250 nM dTAGV-1): 0.2968 | Average DMSO-normalized ratio used for CI calculation (250 nM dBET6 + 5000 nM dTAGV-1): 0.2503 | Average DMSO-normalized ratio used for CI calculation (250 nM dBET6 alone): 0.3398 | DMSO-normalized antiproliferation, Mean (co-treatment 19.5 nM dTAGV-1 (log10[M] -7.70927) + 1 nM dBET6 (log10[M] -9.0103)): 98.11 | DMSO-normalized antiproliferation, Mean (co-treatment 19.5 nM dTAGV-1 (log10[M] -7.70927) + 4 nM dBET6 (log10[M] -8.40824)): 98.09 | DMSO-normalized antiproliferation, Mean (co-treatment 19.5 nM dTAGV-1 (log10[M] -7.70927) + 15.6 nM dBET6 (log10[M] -7.80618)): 79.8 | DMSO-normalized antiproliferation, Mean (co-treatment 19.5 nM dTAGV-1 (log10[M] -7.70927) + 62.5 nM dBET6 (log10[M] -7.20412)): 50.57 | DMSO-normalized antiproliferation, Mean (co-treatment 19.5 nM dTAGV-1 (log10[M] -7.70927) + 250 nM dBET6 (log10[M] -6.60206)): 35.76 | DMSO-normalized antiproliferation, Mean (co-treatment 78 nM dTAGV-1 (log10[M] -7.10721) + 1 nM dBET6 (log10[M] -9.0103)): 113.36 | DMSO-normalized antiproliferation, Mean (co-treatment 78 nM dTAGV-1 (log10[M] -7.10721) + 4 nM dBET6 (log10[M] -8.40824)): 105.67 | DMSO-normalized antiproliferation, Mean (co-treatment 78 nM dTAGV-1 (log10[M] -7.10721) + 15.6 nM dBET6 (log10[M] -7.80618)): 83.17 | DMSO-normalized antiproliferation, Mean (co-treatment 78 nM dTAGV-1 (log10[M] -7.10721) + 62.5 nM dBET6 (log10[M] -7.20412)): 54.14 | DMSO-normalized antiproliferation, Mean (co-treatment 78 nM dTAGV-1 (log10[M] -7.10721) + 250 nM dBET6 (log10[M] -6.60206)): 36.78 | DMSO-normalized antiproliferation, Mean (co-treatment 312.5 nM dTAGV-1 (log10[M] -6.50515) + 1 nM dBET6 (log10[M] -9.0103)): 111.14 | DMSO-normalized antiproliferation, Mean (co-treatment 312.5 nM dTAGV-1 (log10[M] -6.50515) + 4 nM dBET6 (log10[M] -8.40824)): 105.95 | DMSO-normalized antiproliferation, Mean (co-treatment 312.5 nM dTAGV-1 (log10[M] -6.50515) + 15.6 nM dBET6 (log10[M] -7.80618)): 72.28 | DMSO-normalized antiproliferation, Mean (co-treatment 312.5 nM dTAGV-1 (log10[M] -6.50515) + 62.5 nM dBET6 (log10[M] -7.20412)): 49.08 | DMSO-normalized antiproliferation, Mean (co-treatment 312.5 nM dTAGV-1 (log10[M] -6.50515) + 250 nM dBET6 (log10[M] -6.60206)): 33.26 | DMSO-normalized antiproliferation, Mean (co-treatment 1250 nM dTAGV-1 (log10[M] -5.90309) + 1 nM dBET6 (log10[M] -9.0103)): 89.48 | DMSO-normalized antiproliferation, Mean (co-treatment 1250 nM dTAGV-1 (log10[M] -5.90309) + 4 nM dBET6 (log10[M] -8.40824)): 74.91 | DMSO-normalized antiproliferation, Mean (co-treatment 1250 nM dTAGV-1 (log10[M] -5.90309) + 15.6 nM dBET6 (log10[M] -7.80618)): 44.25 | DMSO-normalized antiproliferation, Mean (co-treatment 1250 nM dTAGV-1 (log10[M] -5.90309) + 62.5 nM dBET6 (log10[M] -7.20412)): 31.06 | DMSO-normalized antiproliferation, Mean (co-treatment 1250 nM dTAGV-1 (log10[M] -5.90309) + 250 nM dBET6 (log10[M] -6.60206)): 29.68 | DMSO-normalized antiproliferation, Mean (co-treatment 5000 nM dTAGV-1 (log10[M] -5.30103) + 1 nM dBET6 (log10[M] -9.0103)): 80.15 | DMSO-normalized antiproliferation, Mean (co-treatment 5000 nM dTAGV-1 (log10[M] -5.30103) + 4 nM dBET6 (log10[M] -8.40824)): 47.93 | DMSO-normalized antiproliferation, Mean (co-treatment 5000 nM dTAGV-1 (log10[M] -5.30103) + 15.6 nM dBET6 (log10[M] -7.80618)): 27.9 | DMSO-normalized antiproliferation, Mean (co-treatment 5000 nM dTAGV-1 (log10[M] -5.30103) + 62.5 nM dBET6 (log10[M] -7.20412)): 26.15 | DMSO-normalized antiproliferation, Mean (co-treatment 5000 nM dTAGV-1 (log10[M] -5.30103) + 250 nM dBET6 (log10[M] -6.60206)): 25.03 | Synergy with VHL-mediated EWS/FLI degradation (dTAGV-1) (combination index): synergized strongly | DMSO-normalized antiproliferation, Mean (dBET6 log10[M] -6.60206, with DMSO (no dTAGV-1)): 33.98 | DMSO-normalized antiproliferation, Mean (dBET6 log10[M] -7.20412, with DMSO (no dTAGV-1)): 52.45 | DMSO-normalized antiproliferation, Mean (dBET6 log10[M] -7.80618, with DMSO (no dTAGV-1)): 77.97 | DMSO-normalized antiproliferation, Mean (dBET6 log10[M] -8.40824, with DMSO (no dTAGV-1)): 89.57 | DMSO-normalized antiproliferation, Mean (dBET6 log10[M] -9.0103, with DMSO (no dTAGV-1)): 84.11
